Source: patent US7101878B1 (Agouron Pharmaceuticals, Inc., priority 1998, dated 2006)

target: T1, human GnRH receptor (Homo sapiens, UniProt P30968); assay: Radioligand binding, 125I-GnRH-A displacement, membranes of HEK 293 cells with human GnRH receptor; details: 1 uM; read-out: % Inhib. @ 1 uM hGnRH
T1 construct: expressed in transfected cells; host or cells: HEK 293 (hGnRH-R/293, from Dr. Stuart Sealfon)
T1 sequence (P30968 1-328): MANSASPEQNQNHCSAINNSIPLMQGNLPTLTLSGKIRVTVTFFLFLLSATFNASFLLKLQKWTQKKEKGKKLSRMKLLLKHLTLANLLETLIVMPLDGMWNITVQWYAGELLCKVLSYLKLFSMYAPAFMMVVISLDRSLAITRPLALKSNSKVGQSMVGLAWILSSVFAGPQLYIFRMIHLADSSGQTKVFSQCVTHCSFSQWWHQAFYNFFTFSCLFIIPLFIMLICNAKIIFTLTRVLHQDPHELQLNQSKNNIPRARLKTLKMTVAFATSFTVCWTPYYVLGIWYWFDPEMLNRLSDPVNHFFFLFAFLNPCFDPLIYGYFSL
Summary of the method: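 After filtration and PBS washes, bound radioactivity was counted by scintillation and IC50 derived. Identical conditions applied for non-human receptors.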

Row | SMILES | inhibition at 1 µM [%]
1 | Cc1cc2c(cc1Cc1ccc(C(=O)NCCCN3CCOCC3)o1)C(C)(C)CCC2(C)C [drawing 978] | 57
2 | Cc1cc2c(cc1Cc1ccc(C(=O)NCCCN3CCN(C)CC3)o1)C(C)(C)CCC2(C)C [drawing 980] | 26
3 | Cc1cc2c(cc1Cc1ccc(C(=O)NCC3CCNCC3)o1)C(C)(C)CCC2(C)C [drawing 981] | 20

Next, values leading:

Row | inhibition at 1 µM [%] | SMILES
4 | 40 | Cc1cc2c(cc1Cc1ccc(C(=O)NCCC3CCCN3C)o1)C(C)(C)CCC2(C)C (stereo not shown) [drawing 977]
5 | 15 | Cc1cc2c(cc1Cc1ccc(C(=O)NCCN3CCCCC3)o1)C(C)(C)CCC2(C)C [drawing 982]

same assay, conditions: 1 h, repeat of % Inhib. at 1 uM; read-out: Repeats @ 1 uM hGnRH

Row | SMILES | inhibition at 1 µM [%]
6 | Cc1cc2c(cc1Cc1ccc(C(=O)NCCCN3CCOCC3)o1)C(C)(C)CCC2(C)C [drawing 978] | 58
7 | Cc1cc2c(cc1Cc1ccc(C(=O)NCCCN3CCN(C)CC3)o1)C(C)(C)CCC2(C)C [drawing 980] | 26
8 | Cc1cc2c(cc1Cc1ccc(C(=O)NCC3CCNCC3)o1)C(C)(C)CCC2(C)C [drawing 981] | 24

Results, then the molecule that gave them:

Row | inhibition at 1 µM [%] | SMILES
9 | 49 | Cc1cc2c(cc1Cc1ccc(C(=O)NCCC3CCCN3C)o1)C(C)(C)CCC2(C)C (stereo not shown) [drawing 977]
10 | 15 | Cc1cc2c(cc1Cc1ccc(C(=O)NCCN3CCCCC3)o1)C(C)(C)CCC2(C)C [drawing 982]

same assay, conditions: 1 h, substrate remaining; 1 uM compound; closer to zero = closer to 100% inhibition; read-out: S%R 1 uM hGnRHR

Row | SMILES | remaining activity at 1 µM [%]
11 | Cc1cc2c(cc1Cc1ccc(C(=O)NCc3cccnc3)o1)C(C)(C)CCC2(C)C [Compound 400] | 28
12 | Cc1cc2c(cc1Cc1ccc(C(=O)NCCOCCO)o1)C(C)(C)CCC2(C)C [Compound 401] | 32
13 | Cc1cc2c(cc1Cc1ccc(C(=O)NC(c3ccccc3)C(O)c3ccccc3)o1)C(C)(C)CCC2(C)C (stereo not shown) [Compound 403] | 44
14 | Cc1cc2c(cc1Cc1ccc(C(=O)NCCc3ccccc3)o1)C(C)(C)CCC2(C)C [Compound 405] | 40
15 | Cc1cc2c(cc1Cc1ccc(C(=O)NCc3ccco3)o1)C(C)(C)CCC2(C)C [Compound 407] | 20
16 | COc1ccc(CNC(=O)c2ccc(Cc3cc4c(cc3C)C(C)(C)CCC4(C)C)o2)cc1OC [Compound 411] | 28
17 | CCOc1ccccc1CNC(=O)c1ccc(Cc2cc3c(cc2C)C(C)(C)CCC3(C)C)o1 [Compound 412] | 49
18 | COc1ccc(CNC(=O)c2ccc(Cc3cc4c(cc3C)C(C)(C)CCC4(C)C)o2)cc1 [Compound 414] | 10
19 | Cc1cc2c(cc1Cc1ccc(C(=O)NCc3cccs3)o1)C(C)(C)CCC2(C)C [Compound 415] | 18
20 | Cc1cc2c(cc1Cc1ccc(C(=O)NCc3cccc(Cl)c3Cl)o1)C(C)(C)CCC2(C)C [Compound 416] | 34
21 | Cc1cc2c(cc1Cc1ccc(C(=O)NCc3cccc4ccccc34)o1)C(C)(C)CCC2(C)C [Compound 422] | 34
22 | Cc1cc2c(cc1Cc1ccc(C(=O)NCCCN3CCCC3=O)o1)C(C)(C)CCC2(C)C [Compound 424] | 31
23 | Cc1cc2c(cc1Cc1ccc(C(=O)NCc3ccc(Cl)cc3Cl)o1)C(C)(C)CCC2(C)C [Compound 425] | 42
24 | Cc1cc2c(cc1Cc1ccc(C(=O)NCc3ccc(F)cc3)o1)C(C)(C)CCC2(C)C [Compound 426] | 30
25 | Cc1cc2c(cc1Cc1ccc(C(=O)NCc3cccc(Cl)c3)o1)C(C)(C)CCC2(C)C [Compound 427] | 20
26 | Cc1cc2c(cc1Cc1ccc(C(=O)NC(C)c3ccccc3)o1)C(C)(C)CCC2(C)C (stereo not shown) [Compound 428] | 46
27 | COc1cc(CCNC(=O)c2ccc(Cc3cc4c(cc3C)C(C)(C)CCC4(C)C)o2)cc(OC)c1 [Compound 430] | 55

Row | SMILES | remaining activity at 1 µM [%]
28 | Cc1cc2c(cc1Cc1ccc(C(=O)NC3CC3)o1)C(C)(C)CCC2(C)C [Compound 431] | 47
29 | COCCNC(=O)c1ccc(Cc2cc3c(cc2C)C(C)(C)CCC3(C)C)o1 [Compound 432] | 42
30 | COc1ccc(CCNC(=O)c2ccc(Cc3cc4c(cc3C)C(C)(C)CCC4(C)C)o2)cc1 [Compound 433] | 54
31 | Cc1cc2c(cc1Cc1ccc(C(=O)NCCC#N)o1)C(C)(C)CCC2(C)C [Compound 436] | 58
32 | Cc1cc2c(cc1Cc1ccc(C(=O)NCCc3cccc(F)c3)o1)C(C)(C)CCC2(C)C [Compound 437] | 40
33 | Cc1cc2c(cc1Cc1ccc(C(=O)NCCOc3ccccc3)o1)C(C)(C)CCC2(C)C [Compound 438] | 7
34 | COc1cccc(CNC(=O)c2ccc(Cc3cc4c(cc3C)C(C)(C)CCC4(C)C)o2)c1 [Compound 439] | 23
35 | Cc1ccc(CCNC(=O)c2ccc(Cc3cc4c(cc3C)C(C)(C)CCC4(C)C)o2)cc1 [Compound 442] | 50
36 | Cc1cc2c(cc1Cc1ccc(C(=O)NCc3cccc(F)c3)o1)C(C)(C)CCC2(C)C [Compound 443] | 19
37 | Cc1cc2c(cc1Cc1ccc(C(=O)NCC(O)c3ccccc3)o1)C(C)(C)CCC2(C)C (stereo not shown) [Compound 444] | 32
38 | Cc1cc2c(cc1Cc1ccc(C(=O)NCc3ccc(F)cc3F)o1)C(C)(C)CCC2(C)C [Compound 445] | 22
39 | Cc1cc2c(cc1Cc1ccc(C(=O)NCc3ccc(N(C)C)cc3)o1)C(C)(C)CCC2(C)C [Compound 447] | 18
40 | COc1cc(CNC(=O)c2ccc(Cc3cc4c(cc3C)C(C)(C)CCC4(C)C)o2)ccc1O [Compound 448] | 46
41 | Cc1cc2c(cc1Cc1ccc(C(=O)NCc3ccccc3Br)o1)C(C)(C)CCC2(C)C [Compound 449] | 42
42 | Cc1cc2c(cc1Cc1ccc(C(=O)NC(C#N)c3ccccc3)o1)C(C)(C)CCC2(C)C (stereo not shown) [Compound 452] | 55
43 | Cc1cc2c(cc1Cc1ccc(C(=O)NCc3cccc(Br)c3)o1)C(C)(C)CCC2(C)C [Compound 454] | 36
44 | Cc1cc2c(cc1Cc1ccc(C(=O)NC(C)c3ccc([N+](=O)[O-])cc3)o1)C(C)(C)CCC2(C)C (stereo not shown) [Compound 455] | 58

The next lines start with the values.

Row | remaining activity at 1 µM [%] | SMILES
45 | 18 | Cc1cc2c(cc1Cc1ccc(C(=O)NCc3ccccc3)o1)C(C)(C)CCC2(C)C [Compound 402]
46 | 13 | COc1ccccc1CNC(=O)c1ccc(Cc2cc3c(cc2C)C(C)(C)CCC3(C)C)o1 [Compound 404]
47 | 30 | Cc1cc2c(cc1Cc1ccc(C(=O)NCCNc3ccccc3)o1)C(C)(C)CCC2(C)C [Compound 406]
48 | 16 | Cc1cc2c(cc1Cc1ccc(C(=O)NCc3ccccc3F)o1)C(C)(C)CCC2(C)C [Compound 408]
49 | 32 | Cc1cc2c(cc1Cc1ccc(C(=O)NCc3ccc(Cl)cc3)o1)C(C)(C)CCC2(C)C [Compound 409]
50 | 21 | COc1cccc(CNC(=O)c2ccc(Cc3cc4c(cc3C)C(C)(C)CCC4(C)C)o2)c1OC [Compound 410]
51 | 16 | Cc1ccccc1CNC(=O)c1ccc(Cc2cc3c(cc2C)C(C)(C)CCC3(C)C)o1 [Compound 413]
52 | 20 | Cc1cc2c(cc1Cc1ccc(C(=O)NCc3ccccc3Cl)o1)C(C)(C)CCC2(C)C [Compound 417]
53 | 42 | Cc1cc2c(cc1Cc1ccc(C(=O)NCCc3ccccc3Cl)o1)C(C)(C)CCC2(C)C [Compound 418]
54 | 36 | COc1ccccc1CCNC(=O)c1ccc(Cc2cc3c(cc2C)C(C)(C)CCC3(C)C)o1 [Compound 419]
55 | 28 | Cc1cc2c(cc1Cc1ccc(C(=O)NC(CO)Cc3ccccc3)o1)C(C)(C)CCC2(C)C (stereo not shown) [Compound 420]
56 | 48 | Cc1cc2c(cc1Cc1ccc(C(=O)NCc3ccccc3Oc3ccccc3CO)o1)C(C)(C)CCC2(C)C [Compound 421]
57 | 49 | Cc1cc2c(cc1Cc1ccc(C(=O)NC(C)CCc3ccccc3)o1)C(C)(C)CCC2(C)C (stereo not shown) [Compound 423]
58 | 40 | COc1cccc(CCNC(=O)c2ccc(Cc3cc4c(cc3C)C(C)(C)CCC4(C)C)o2)c1OC [Compound 429]
59 | 6 | Cc1cccc(CNC(=O)c2ccc(Cc3cc4c(cc3C)C(C)(C)CCC4(C)C)o2)c1 [Compound 434]
60 | 12 | Cc1ccc(CNC(=O)c2ccc(Cc3cc4c(cc3C)C(C)(C)CCC4(C)C)o2)cc1 [Compound 435]
61 | 22 | Cc1ccc(CNC(=O)c2ccc(Cc3cc4c(cc3C)C(C)(C)CCC4(C)C)o2)cc1C [Compound 440]
62 | 17 | Cc1cc2c(cc1Cc1ccc(C(=O)NCc3cccc(C)c3C)o1)C(C)(C)CCC2(C)C [Compound 441]
63 | 55 | Cc1cc2c(cc1Cc1ccc(C(=O)NCCc3ccc(F)cc3)o1)C(C)(C)CCC2(C)C [Compound 446]
64 | 6 | COc1ccc(CNC(=O)c2ccc(Cc3cc4c(cc3C)C(C)(C)CCC4(C)C)o2)c(OC)c1 [Compound 450]
65 | 24 | Cc1cc2c(cc1Cc1ccc(C(=O)NCc3cccc([N+](=O)[O-])c3)o1)C(C)(C)CCC2(C)C [Compound 451]
66 | 50 | Cc1cc2c(cc1Cc1ccc(C(=O)NCc3ccc(Br)cc3)o1)C(C)(C)CCC2(C)C [Compound 453]

same assay, conditions: 1 h, substrate remaining; 10 uM compound; closer to zero = closer to 100% inhibition; read-out: S%R 10 uM hGnRHR

Row | SMILES | remaining activity at 10 µM [%]
67 | Cc1cc2c(cc1Cc1ccc(C(=O)Nc3c(Cl)cc(Cl)cc3C(F)(F)F)o1)C(C)(C)CCC2(C)C [Compound 395] | 40
68 | CC(=O)c1ccc(NC(=O)c2ccc(Cc3cc4c(cc3C)C(C)(C)CCC4(C)C)o2)cc1 [Compound 396] | 55

The remaining lines, values ahead:

Row | remaining activity at 10 µM [%] | SMILES
69 | 43 | Cc1cc2c(cc1Cc1ccc(C(=O)Nc3c(C)cccc3C)o1)C(C)(C)CCC2(C)C [Compound 397]
70 | 41 | CCc1cccc(C)c1NC(=O)c1ccc(Cc2cc3c(cc2C)C(C)(C)CCC3(C)C)o1 [Compound 399]
